Data on three molecules can be found in BindingDB's records for doi:10.1021/acsmedchemlett.0c00444 (Virginia Commonwealth University, 2020).

A short description of this test: Inhibition of HIV1 3B reverse transcriptase infected in human GHOST CXCR4 cells assessed as reduction in viral replication incubated for 60 to 90 mins in presence of DTT and TTP by liquid scintillation counter.
With `CC1(C)CN2C(CS/C(=N\C3CCCCC3)NC3CCCCC3)=CSC2=N1` [(6,6-dimethyl-5,6-dihydroimidazo[2,1-b][1,3]thiazol-3-yl)methyl N,N'-dicyclohexylimidothiocarbamate], the EC50 (in general, the concentration needed to bring the measured effect to its halfway point) came to 22 nM.
For `CC1(C)CN2C(CS/C(N)=N\[C@H]3CC[C@H](CNC(=O)COCC(=O)NCCCCNC(=O)COCC(=O)N[C@@H]4CC[C@@]5(O)[C@H]6Cc7ccc(O)c8c7[C@@]5(CCN6CC5CC5)[C@H]4O8)CC3)=CSC2=N1` the value was 960 nM.
To `CNC(=O)COCC(=O)NCCCCNC(=O)COCC(=O)NC[C@H]1CC[C@H](/N=C(\NC2CCCCC2)SCC2=CSC3=NC(C)(C)CN23)CC1` belongs 144000 nM.
